The values below come from patent publication US7541360B2, “4-amino-7,8-dihydropteridines, pharmaceutical compositions containing them and their use for the treatment of diseases which are caused by an increased nitric oxide level” (Vasopharm GmbH, priority 2003, dated 2009).

The data set in a line: In vivo stability: half-life for blood clearance after intravenous injection, venous blood analysed by LC-MS/MS. Conditions: i.v. 1-10 mg/kg, male Sprague-Dawley rats; for t1/2 (dihydro), half-life for blood clearance: corresponding dihydro-derivative formed spontaneously in vivo from the injected tetrahydro-compound, venous blood; for t1/2 (tetrahydro), half-life for blood clearance: injected tetrahydro-compound, venous blood up to eight hours. As to the method: The compounds 4-N-cyclohexylmethylamino-5,6,7,8-tetrahydrobiopterin (compound A), 2-amino-4-piperidino-6-phenyl-(R,S)-5,6,7,8-tetrahydropteridin (compound B) and 2-amino-4-di-n-propylamino-6-(4-methoxyphenyl)-(R,S)-5,6,7,8-tetrahydropteridin (compound C) were intravenously injected into male Sprague-Dawley rats (1-10 mg/kg). Venous blood samples were taken up to eight hours after the injections and analyzed for the injected tetrahydro-compounds and for their corresponding dihydro-derivatives, which are spontaneously formed in vivo, by LC-MS/MS.

Regarding `CC(O)C(O)C1CNc2nc(N)nc(NCC3CCCCC3)c2N1` (stereo not drawn) [Compound A, 4-N-cyclohexylmethylamino-5,6,7,8-tetrahydrobiopterin], the “t1/2 (dihydro), half-life for blood clearance” value (from here on “t1/2 (dihydro), half-life”) was found to be 48 min and the “t1/2 (tetrahydro), half-life for blood clearance” value (from here on “t1/2 (tetrahydro), half-life”) is recorded as <<5 min.

On to “2-amino-4-di-n-propylamino-6-(4-methoxyphenyl)-(R,S)-5,6,7,8-tetrahydropteridin [Compound C]”, for which the “t1/2 (dihydro), half-life” value is on record as around 30 min and the “t1/2 (tetrahydro), half-life” value is <<5 min.

For the compound `Nc1nc2c(c(N3CCCCC3)n1)NC(c1ccccc1)CN2` (racemic) [Compound B, 2-amino-4-piperidino-6-phenyl-(R,S)-5,6,7,8-tetrahydropteridin], the “t1/2 (dihydro), half-life” value is around 20 min and the “t1/2 (tetrahydro), half-life” value is <<5 min.
